# Reference: PubChem BioAssay (NCI)
#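 GI50 is the concentration that inhibits growth by half. At the TGI there is no net growth.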
# Legend:
# Assay in all cases: NCI tumour cell line growth inhibition, 384-well format
# [1] = system: BT-549 breast
# [2] = system: MDA-MB-468 breast
# [3] = system: NCI/ADR-RES ovarian
# [4] = system: LOX IMVI melanoma
# [5] = system: NCI-H460 NSCLC
# [6] = system: HCT-15 colon
# [7] = system: OVCAR-3 ovarian
# [8] = system: SK-MEL-5 melanoma
# [9] = system: K-562 leukemia
# [10] = system: HCT-116 colon
# [11] = system: CCRF-CEM leukemia
# [12] = system: IGROV1 ovarian
# [13] = system: SW-620 colon
# [14] = system: KM12 colon
# [15] = system: DU-145 prostate
# [16] = system: MCF7 breast
# [17] = system: TK-10 renal
# [18] = system: SK-OV-3 ovarian
# [19] = system: HT29 colon
# [20] = system: U251 glioblastoma
# [21] = system: SF-539 CNS
# [22] = system: NCI-H322M lung
# [23] = system: SK-MEL-28 melanoma
# [24] = system: HOP-62 NSCLC
# [25] = system: NCI-H226 lung
# [26] = system: RXF 393 renal
# [27] = system: CAKI-1 renal
# [28] = system: MOLT-4 leukemia
# [29] = system: A549 NSCLC
# [30] = system: UACC-257 melanoma
# [31] = system: MDA-MB-231 breast
# [32] = system: 786-0 renal
# [33] = system: MALME-3M melanoma
# [34] = system: OVCAR-4 ovarian
# [35] = system: MDA-MB-435 melanoma
# [36] = system: HOP-92 NSCLC
# [37] = system: PC-3 prostate
# [38] = system: SK-MEL-2 melanoma
# [39] = system: SNB-19 CNS
# [40] = system: UACC-62 melanoma
# [41] = system: UO-31 renal
# [42] = system: ACHN renal
# [43] = system: SF-295 CNS
# [44] = system: SF-268 CNS
# [45] = system: NCI-H522 lung
# [46] = system: COLO 205 colon
# [47] = system: T-47D breast
# [48] = system: M14 melanoma
# [49] = system: A498 renal
# [50] = system: SN12C renal
# [51] = system: NCI-H23 lung
# [52] = system: OVCAR-8 ovarian
# [53] = system: HCC-2998 colon
# [54] = system: SR leukemia
# [55] = system: HL-60(TB) leukemia
# [56] = system: OVCAR-5 ovarian
# [57] = system: RPMI-8226 leukemia
structure (smiles),measurement,setting,value
CCN(C(=O)c1cc(F)ccc1Oc1cncnc1N1CC2(CCN(CC3CCC(NS(=O)(=O)CC)CC3)CC2)C1)C(C)C (stereo unspecified),GI50,[1],92.7 µM
same,TGI,[1],> 100 µM
same,GI50,[2],65.5 µM
same,TGI,[2],> 100 µM
same,GI50,[3],> 100 µM
same,TGI,[3],> 100 µM
same,GI50,[4],> 100 µM
same,TGI,[4],> 100 µM
same,GI50,[5],> 100 µM
same,TGI,[5],> 100 µM
same,GI50,[6],> 100 µM
same,TGI,[6],> 100 µM
same,GI50,[7],63.5 µM
same,TGI,[7],> 100 µM
same,GI50,[8],> 100 µM
same,TGI,[8],> 100 µM
same,GI50,[9],> 100 µM
same,TGI,[9],> 100 µM
same,GI50,[10],> 100 µM
same,TGI,[10],> 100 µM
same,GI50,[11],10.1 µM
same,TGI,[11],43.1 µM
same,GI50,[12],> 100 µM
same,TGI,[12],> 100 µM
same,GI50,[13],> 100 µM
same,TGI,[13],> 100 µM
same,GI50,[14],> 100 µM
same,TGI,[14],> 100 µM
same,GI50,[15],> 100 µM
same,TGI,[15],> 100 µM
same,GI50,[16],> 100 µM
same,TGI,[16],> 100 µM
same,GI50,[17],> 100 µM
same,TGI,[17],> 100 µM
same,GI50,[18],> 100 µM
same,TGI,[18],> 100 µM
same,GI50,[19],> 100 µM
same,TGI,[19],> 100 µM
same,GI50,[20],> 100 µM
same,TGI,[20],> 100 µM
same,GI50,[21],> 100 µM
same,TGI,[21],> 100 µM
same,GI50,[22],> 100 µM
same,TGI,[22],> 100 µM
same,GI50,[23],> 100 µM
same,TGI,[23],> 100 µM
same,GI50,[24],> 100 µM
same,TGI,[24],> 100 µM
same,GI50,[25],> 100 µM
same,TGI,[25],> 100 µM
same,GI50,[26],0.753 µM
same,TGI,[26],> 100 µM
same,GI50,[27],> 100 µM
same,TGI,[27],> 100 µM
same,GI50,[28],1.17 µM
same,TGI,[28],3.67 µM
same,GI50,[29],> 100 µM
same,TGI,[29],> 100 µM
same,GI50,[30],> 100 µM
same,TGI,[30],> 100 µM
same,GI50,[31],18.7 µM
same,TGI,[31],> 100 µM
same,GI50,[32],> 100 µM
same,TGI,[32],> 100 µM
same,GI50,[33],> 100 µM
same,TGI,[33],> 100 µM
same,GI50,[34],82.6 µM
same,TGI,[34],> 100 µM
same,GI50,[35],> 100 µM
same,TGI,[35],> 100 µM
same,GI50,[36],2.2 µM
same,TGI,[36],41.5 µM
same,GI50,[37],> 100 µM
same,TGI,[37],> 100 µM
same,GI50,[38],24.5 µM
same,TGI,[38],> 100 µM
same,GI50,[39],> 100 µM
same,TGI,[39],> 100 µM
same,GI50,[40],> 100 µM
same,TGI,[40],> 100 µM
same,GI50,[41],> 100 µM
same,TGI,[41],> 100 µM
same,GI50,[42],> 100 µM
same,TGI,[42],> 100 µM
same,GI50,[43],> 100 µM
same,TGI,[43],> 100 µM
same,GI50,[44],> 100 µM
same,TGI,[44],> 100 µM
same,GI50,[45],92.3 µM
same,TGI,[45],> 100 µM
same,GI50,[46],78.3 µM
same,TGI,[46],> 100 µM
same,GI50,[47],72.3 µM
same,TGI,[47],> 100 µM
same,GI50,[48],> 100 µM
same,TGI,[48],> 100 µM
same,GI50,[49],77.3 µM
same,TGI,[49],> 100 µM
same,GI50,[50],> 100 µM
same,TGI,[50],> 100 µM
same,GI50,[51],> 100 µM
same,TGI,[51],> 100 µM
same,GI50,[52],> 100 µM
same,TGI,[52],> 100 µM
same,GI50,[53],2.94 µM
same,TGI,[53],> 100 µM
same,GI50,[54],81.2 µM
same,TGI,[54],> 100 µM
same,GI50,[55],> 100 µM
same,TGI,[55],> 100 µM
same,GI50,[56],> 100 µM
same,TGI,[56],> 100 µM
Cc1c(COc2cc(OCc3cccc(C#N)c3)c(CN3C[C@H](O)C[C@@H]3C(=O)O)cc2Cl)cccc1-c1ccc2c(c1)OCCO2,GI50,[1],3.4 µM
same,TGI,[1],12 µM
same,GI50,[2],2.7 µM
same,TGI,[2],6.92 µM
same,GI50,[3],77.7 µM
same,TGI,[3],> 100 µM
same,GI50,[4],2.68 µM
same,TGI,[4],6.63 µM
same,GI50,[5],3.45 µM
same,TGI,[5],12.4 µM
same,GI50,[6],4.4 µM
same,TGI,[6],14.8 µM
same,GI50,[7],2.37 µM
same,TGI,[7],6.1 µM
same,GI50,[8],1.72 µM
same,TGI,[8],4.31 µM
same,GI50,[9],3.46 µM
same,TGI,[9],12.1 µM
same,GI50,[10],2.81 µM
same,TGI,[10],7.43 µM
same,GI50,[11],1.81 µM
same,TGI,[11],3.26 µM
same,GI50,[12],3.93 µM
same,TGI,[12],14.2 µM
same,GI50,[13],5.44 µM
same,TGI,[13],17 µM
same,GI50,[14],3.38 µM
same,TGI,[14],10.9 µM
same,GI50,[15],7.96 µM
same,TGI,[15],20.5 µM
same,GI50,[16],2.34 µM
same,TGI,[16],6.63 µM
same,GI50,[17],3.11 µM
same,TGI,[17],9.29 µM
same,GI50,[18],5.17 µM
same,TGI,[18],16.3 µM
same,GI50,[19],2.42 µM
same,TGI,[19],5.77 µM
same,GI50,[20],3.38 µM
same,TGI,[20],10.6 µM
same,GI50,[21],3.25 µM
same,TGI,[21],11.6 µM
same,GI50,[22],7.65 µM
same,TGI,[22],20.2 µM
same,GI50,[23],2.71 µM
same,TGI,[23],7.55 µM
same,GI50,[57],1.67 µM
same,TGI,[57],3.04 µM
same,GI50,[24],3.97 µM
same,TGI,[24],15.4 µM
same,GI50,[25],2.6 µM
same,TGI,[25],7.19 µM
same,GI50,[26],1.41 µM
same,TGI,[26],3.5 µM
same,GI50,[27],6.69 µM
same,TGI,[27],18.8 µM
same,GI50,[28],1.77 µM
same,TGI,[28],3.16 µM
same,GI50,[29],10.6 µM
same,TGI,[29],22.5 µM
same,GI50,[30],2.63 µM
same,TGI,[30],8.02 µM
same,GI50,[31],3.23 µM
same,TGI,[31],9.47 µM
same,GI50,[32],3.82 µM
same,TGI,[32],13.7 µM
same,GI50,[33],5.72 µM
same,TGI,[33],17.5 µM
same,GI50,[34],4.03 µM
same,TGI,[34],16 µM
same,GI50,[35],4.35 µM
same,TGI,[35],14.2 µM
same,GI50,[36],2.4 µM
same,TGI,[36],6 µM
same,GI50,[37],3.58 µM
same,TGI,[37],10.3 µM
same,GI50,[38],1.93 µM
same,TGI,[38],3.76 µM
same,GI50,[39],4.11 µM
same,TGI,[39],13.5 µM
same,GI50,[40],2.3 µM
same,TGI,[40],5.05 µM
same,GI50,[41],1.93 µM
same,TGI,[41],3.79 µM
same,GI50,[42],10.4 µM
same,TGI,[42],22.3 µM
same,GI50,[43],3.09 µM
same,TGI,[43],8.92 µM
same,GI50,[44],3.98 µM
same,TGI,[44],14.5 µM
same,GI50,[45],2.73 µM
same,TGI,[45],9.61 µM
same,GI50,[46],4.51 µM
same,TGI,[46],14.6 µM
same,GI50,[47],2.97 µM
same,TGI,[47],12.9 µM
same,GI50,[48],3.64 µM
same,TGI,[48],11.6 µM
same,GI50,[49],3.27 µM
same,TGI,[49],11.7 µM
same,GI50,[50],5.41 µM
same,TGI,[50],16.4 µM
same,GI50,[51],10.4 µM
same,TGI,[51],22.2 µM
same,GI50,[52],4.21 µM
same,TGI,[52],15.5 µM
same,GI50,[53],1.47 µM
same,TGI,[53],3.59 µM
same,GI50,[54],1.69 µM
same,TGI,[54],3.06 µM
same,GI50,[55],2.1 µM
same,TGI,[55],3.54 µM
same,GI50,[56],15 µM
same,TGI,[56],28.2 µM
